From article PMC8402726 (Viruses, 2021)
Read-outs that look alike come from different tables or passages of the source.

Legend:
SARS-CoV-2 RdRp = SARS-CoV-2 RdRp (Severe acute respiratory syndrome coronavirus 2, UniProt P0DTD1); experiment: biochemical; format: biochemical; conditions: for Inhibition of SARS-CoV-2 RdRp at one concentration: in vitro RdRp assay, 100 µM
in vitro [1] = conditions: cat (Felis catus)
in vitro [2] = conditions: human
FIPV = experiment: Viral titer reduction assay, FIPV in CRFK cells (plaque assay readout); format: cell-based, feline infectious peritonitis virus; conditions: for Inhibition of FIPV replication at single concentration: 50 µM, initial screening; for Inhibition of FIPV replication at single concentration / EC50 / Anti-FIPV activity lower compared with remdesivir: CRFK cells; for SI: CC50/EC50, CRFK cells; for SI / EC50: FIPV; for EC50: MOI 0.1, 48 h, 50% reduction in viral titers, read-out: EC50 (µM) (95% CI); for Anti-FIPV activity lower compared with remdesivir: relative to remdesivir EC50
SARS-CoV-2 [3] = experiment: microbe, parasite or virus in culture; format: cell-based; conditions: for SI: CC50/EC50, CaCo-2 cells, SARS-CoV-2; for EC50: Severe acute respiratory syndrome coronavirus 2, CaCo-2 cells, MOI 0.1, 48 h, 50% reduction in viral titers, read-out: EC50 (µM) (95% CI)
in vitro [4] = conditions: African green monkey
SARS-CoV-2 [5] = experiment: microbe, parasite or virus in culture; format: cell-based; conditions: for Inhibition of SARS-CoV-2 replication at single concentration: 50 µM, initial screening; for Inhibition of SARS-CoV-2 replication at single concentration / EC50: Vero cells; for SI: CC50/EC50, Vero cells, SARS-CoV-2; for EC50: Severe acute respiratory syndrome coronavirus 2, MOI 0.1, 48 h, 50% reduction in viral titers, read-out: EC50 (µM) (95% CI)
CaCo-2 cells = conditions: 50 µM
Vero cells = conditions: 50 µM
[6] = Cytotoxicity (Cell Counting Kit-8, WST-8) in CaCo-2 cells; conditions: human
[7] = Cytotoxicity (Cell Counting Kit-8, WST-8) in Vero cells; conditions: African green monkey
[8] = Cytotoxicity (Cell Counting Kit-8, WST-8) in CRFK cells; conditions: cat (Felis catus)
[9] = radioactive primer extension assay, n = 3, ± standard error of the mean, read-out: IC50

SMILES	Inhibition of SARS-CoV-2 RdRp at one concentration (SARS-CoV-2 RdRp)	CC50 at 48 h (in vitro [1]) [µM]	CC50 at 48 h (in vitro [2]) [µM]	Inhibition of FIPV replication at single concentration (FIPV)	SI (FIPV)	EC50 (FIPV) [µM]	Anti-FIPV activity lower compared with remdesivir (FIPV)	SI (SARS-CoV-2 [3])	EC50 (SARS-CoV-2 [3]) [µM]	CC50 at 48 h (in vitro [4]) [µM]	Inhibition of SARS-CoV-2 replication at single concentration (SARS-CoV-2 [5])	SI (SARS-CoV-2 [5])	EC50 (SARS-CoV-2 [5]) [µM]	IC50 (SARS-CoV-2 RdRp; [9]) [µM]	other results
O=C(N[C@@H](Cc1ccc(O)cc1)C(=O)O)c1cc(-c2ccccc2)c(=O)n2c1sc1ccc(OC3CCCCC3)cc12 [Compound 16, reference compound]	inhibit	> 50	> 50	completely inhibit	>47.1	1.06	approx. 5 fold	>52.7	0.949	> 50	completely inhibit	>76.5	0.653		IC50 (SARS-CoV-2 RdRp): 27.6 ± 2.1 µM; SI (FIPV; listed as HeE1-2Tyr (16)): exceeding 40; SI (SARS-CoV-2 [3]; listed as HeE1-2Tyr (16)): > 50; SI (SARS-CoV-2 [5]; listed as HeE1-2Tyr (16)): > 70
O=C(N[C@@H](Cc1ccccc1)C(=O)O)c1cc(-c2ccccc2)c(=O)n2c1sc1ccc(OC3CCCCC3)cc12 [Compound 17]	inhibit	> 50	> 50	completely inhibit		0.999	approx. 5 fold	>50.2	0.996	> 50	completely inhibit	>94.8	0.527	41.2 ± 1.7	viability at 48 h, 50 µM (in vitro [1]): ~60%; Cell viability (CaCo-2 cells): approx. 125 % of untreated cells; Cell viability (Vero cells): approx. 125 % of untreated cells
O=C(N[C@@H](Cc1ccc(O)cc1)C(=O)O)c1ccc(=O)n2c1sc1ccc(OC3CCCCC3)cc12 [Compound 18]	inhibit	> 50	> 50	inactive	>1			>2	> 25	> 50	inactive	>1	> 50	85.5 ± 2	
CCC(CC)COC(=O)[C@H](C)N[P@](=O)(OC[C@H]1O[C@@](C#N)(c2ccc3c(N)ncnn23)[C@H](O)[C@@H]1O)Oc1ccccc1 [Remdesivir]					>224.2				< 0.3			>55.5	0.901		CC50 at 48 h [6]: > 50 µM; CC50 at 48 h [7]: > 50 µM; CC50 at 48 h [8]: > 50 µM
